Measurements reported in patent US12359236B2, “Production of 2-hydroxyacyl-CoAs and derivatives thereof” (Mojia Biotech Pte. Ltd., priority 2019, dated 2025).

B1: FucO: E. coli 1,2-diol oxidoreductase, added as cell extract (protein, UniProt P0A9S1 1-382, looked up)
Lactaldehyde reductase: MANRMILNETAWFGRGAVGALTDEVKRRGYQKALIVTDKTLVQCGVVAKVTDKMDAAGLAWAIYDGVVPNPTITVVKEGLGVFQNSGADYLIAIGGGSPQDTCKAIGIISNNPEFADVRSLEGLSPTNKPSVPILAIPTTAGTAAEVTINYVITDEEKRRKFVCVDPHDIPQVAFIDADMMDGMPPALKAATGVDALTHAIEGYITRGAWALTDALHIKAIEIIAGALRGSVAGDKDAGEEMALGQYVAGMGFSNVGLGLVHGMAHPLGAFYNTPHGVANAILLPHVMRYNADFTGEKYRDIARVMGVKVEGMSLEEARNAAVEAVFALNRDVGIPPHLRDVGVRKEDIPALAQAALDDVCTGGNPREATLEDIVELYHTAW
modifications: cell extract
notes: E. coli 1,2-diol oxidoreductase, added as cell extract
B2: OfOxc: oxalyl-CoA decarboxylase from Oxalobacter formigenes (protein, UniProt P40149 1-568, looked up)
Oxalyl-CoA decarboxylase: MSNDDNVELTDGFHVLIDALKMNDIDTMYGVVGIPITNLARMWQDDGQRFYSFRHEQHAGYAASIAGYIEGKPGVCLTVSAPGFLNGVTSLAHATTNCFPMILLSGSSEREIVDLQQGDYEEMDQMNVARPHCKASFRINSIKDIPIGIARAVRTAVSGRPGGVYVDLPAKLFGQTISVEEANKLLFKPIDPAPAQIPAEDAIARAADLIKNAKRPVIMLGKGAAYAQCDDEIRALVEETGIPFLPMGMAKGLLPDNHPQSAAATRAFALAQCDVCVLIGARLNWLMQHGKGKTWGDELKKYVQIDIQANEMDSNQPIAAPVVGDIKSAVSLLRKALKGAPKADAEWTGALKAKVDGNKAKLAGKMTAETPSGMMNYSNSLGVVRDFMLANPDISLVNEGANALDNTRMIVDMLKPRKRLDSGTWGVMGIGMGYCVAAAAVTGKPVIAVEGDSAFGFSGMELETICRYNLPVTVIIMNNGGIYKGNEADPQPGVISCTRLTRGRYDMMMEAFGGKGYVANTPAELKAALEEAVASGKPCLINAMIDPDAGVESGRIKSLNVVSKVGKK

Columns and labels:
Type in all cases: biochemical
[1] = tested on: Rhodospirillales bacterium URHD0017 2-hydroxyacyl-CoA lyase (RuHACL) variant G390N (RuHACL^G390N); experiment: Kinetics of the C1 condensation reaction of the G390N RuHACL mutant on formyl-CoA and formaldehyde; conditions: in vitro, formyl-CoA and formaldehyde as substrates
[2] = tested on: formaldehyde; experiment: Cell-free prototyping of one carbon bioconversion pathway with E. coli cell extracts; conditions: for performance of enzyme variant in cell-free glycolic acid pathway: mixed extracts of HACL and ACR variants, formaldehyde as sole carbon source
Experimental: Cell-free reactions for pathway prototyping contained 50 mM KPi pH 7.4, 4 mM MgCl2, 0.1 mM TPP, 2.5 mM CoASH, 5 mM NAD^+, and 50 mM formaldehyde. For time course experiments, 0.1 mM coenzyme B12 was added. Individual cell extract loading was around 4.4 g/L protein (⅛ of the reaction volume), and the amount of protein added to each reaction was normalized with BL21(DE3) extract to ˜26 g/L protein (¾ of the reaction volume). Reactions were incubated at room temperature for one hour unless otherwise specified. ¼ of the reaction volume of saturated ammonium sulfate solution acidified with 1% sulfuric acid was added to terminate the reactions. Samples were centrifuged at 20817×g for 15 minutes and the supernatant analyzed by HPLC or GC-MS as described below. For isotope labeling experiments, 13C formaldehyde (Cambridge Isotope Laboratories, Tewksbury, MA) was used.
We combined extracts of E. coli, prepared as described in the previous example(s), expressing variants of HACL and ACR to rapidly screen for the best performing combinations. […] The combination of LmACR and RuHACL enabled the production of 6.2±0.6 mM glycolic acid in 1 hr. The use of 13C-labeled formaldehyde confirmed that the observed glycolic acid was derived from the C1 substrate, judging by the +2 shift in m/z of the [M-15]^+ ion (FIG. 13C).
Quantification of product and substrate concentrations (formic acid, formaldehyde, glycolic acid, ethylene glycol, ethanol, acetic acid) were determined via HPLC using a Shimadzu Prominence SIL 20 system (Shimadzu Scientific Instruments, Inc., Columbia, MD) equipped with a refractive index detector and an HPX-87H organic acid column (Bio-Rad, Hercules, CA) with operating conditions to optimize peak separation (0.3 ml/min flowrate, 30 mM H2SO4 mobile phase, column temperature 42° C.). Compound identification and analysis was performed by GC-MS using an Agilent 7890B Series Custom Gas Chromatography system equipped with a 5977B Inert Plus Mass Selective Detector Turbo EI Bundle (for identification) and an Agilent HP-5-ms capillary column (0.25 mm internal diameter, 0.25 μm film thickness, 30 m length).

[3] = target: Rhodospirillales bacterium URHD0017 2-hydroxyacyl-CoA lyase (RuHACL), wild type, UniProt: A0A1H8YFL8; experiment: Kinetics of RuHACL-catalyzed condensation (ligation) of acetone with formyl-CoA; conditions: 0.5 μM purified RuHACL, 1 mM formyl-CoA, acetone varied, 50 mM KPi pH 7.4, 2.5 mM MgCl2, 0.1 mM TPP, room temperature, 1 min; Michaelis-Menten fit
Experimental: 0.5 μM purified RuHACL was incubated with 1 mM formyl-CoA in a reaction mixture also containing 50 mM KPi pH 7.4, 2.5 mM MgCl2, and 0.1 mM TPP. The concentration of acetone was varied, and room temperature reactions were carried out for 1 min. 40 μL samples were quenched by addition of 10 μL 0.5 M NaOH and placed on ice. 12.5 μL of a saturated ammonium sulfate solution acidified with 1% sulfuric acid was added and the samples were analyzed by HPLC for the determination of the initial reaction rates after centrifugation at 20817×g for 15 minutes. […] The apparent kcat of RuHACL on acetone was 2.7±0.8 s^−1 while the KM was 1.57±0.68 M, corresponding to a catalytic efficiency of 1.7±0.9 s^−1 M^−1.

Molecule | KM of the mutant compared to the wild type [1] | kcat of the mutant compared to the wild type [1] | performance of enzyme variant in cell-free glycolic acid pathway [2] | also measured
C=O [formaldehyde] | no significant difference | no significant difference |  | 
HsHACL1: 2-hydroxyacyl-CoA lyase HACL1 from Homo sapiens |  |  | enabling product synthesis | 
CC(C)=O [acetone] |  |  |  | apparent kcat on acetone [3]: 2.7 ± 0.8 s⁻¹
CC(C)(COP(=O)(O)OP(=O)(O)OC[C@H]1O[C@@H](n2cnc3c(N)ncnc32)[C@H](O)[C@@H]1OP(=O)(O)O)[C@@H](O)C(=O)NCCC(=O)NCCSC=O [formyl-CoA] | no significant difference | no significant difference |  | 
B1 |  |  |  | ethylene glycol synthesis ([2]; extract added to LmACR+RuHACL pathway): 2.73 ± 0.03 mM; fold increase of ethylene glycol ([2]; from 1.37±0.1 mM to 2.73±0.03 mM): 2 fold
B2 |  |  | capable of catalyzing the pathway | 
